We go through eight compounds from patent publication US20250295634A1, “USE OF ANTIANDROGENS TO TREAT SEPSIS” (Rhode Island Hospital, priority 2024, published 2025).

Series [1] has as its system COVID-19. The conditions noted are these: cited from earlier work.
For series [2] the following is noted: in vivo; cited from earlier work.
Series [3] concerns COVID-19. As to conditions: at five days of therapy; cited from earlier work.
Series [4] concerns TMPRSS2. The conditions noted are these: in men; cited from earlier work.
The subject of series [5] is COVID-19. As to conditions: men with diagnosis of AGA, outpatient setting; cited from earlier work.
Series [6] relates to angiotensin converting enzyme 2 (ACE2). As to conditions: in men; cited from earlier work.
Series [7] concerns TMPRSS2. The conditions noted are these: cited from earlier work.
Series [8] relates to COVID-19. The conditions noted are these: inventors' reading of Welén et al.; the authors report no evidence of benefit; cited from earlier work.
Series [9] concerns COVID-19. As to conditions: cited from earlier work. This is another data set of the same source.
The next series deals with sepsis. The conditions noted are these: fecal peritonitis model; cited from earlier work.
Another series deals with T1, androgen receptor (Homo sapiens, UniProt P10275).
T1 sequence (P10275 1-920): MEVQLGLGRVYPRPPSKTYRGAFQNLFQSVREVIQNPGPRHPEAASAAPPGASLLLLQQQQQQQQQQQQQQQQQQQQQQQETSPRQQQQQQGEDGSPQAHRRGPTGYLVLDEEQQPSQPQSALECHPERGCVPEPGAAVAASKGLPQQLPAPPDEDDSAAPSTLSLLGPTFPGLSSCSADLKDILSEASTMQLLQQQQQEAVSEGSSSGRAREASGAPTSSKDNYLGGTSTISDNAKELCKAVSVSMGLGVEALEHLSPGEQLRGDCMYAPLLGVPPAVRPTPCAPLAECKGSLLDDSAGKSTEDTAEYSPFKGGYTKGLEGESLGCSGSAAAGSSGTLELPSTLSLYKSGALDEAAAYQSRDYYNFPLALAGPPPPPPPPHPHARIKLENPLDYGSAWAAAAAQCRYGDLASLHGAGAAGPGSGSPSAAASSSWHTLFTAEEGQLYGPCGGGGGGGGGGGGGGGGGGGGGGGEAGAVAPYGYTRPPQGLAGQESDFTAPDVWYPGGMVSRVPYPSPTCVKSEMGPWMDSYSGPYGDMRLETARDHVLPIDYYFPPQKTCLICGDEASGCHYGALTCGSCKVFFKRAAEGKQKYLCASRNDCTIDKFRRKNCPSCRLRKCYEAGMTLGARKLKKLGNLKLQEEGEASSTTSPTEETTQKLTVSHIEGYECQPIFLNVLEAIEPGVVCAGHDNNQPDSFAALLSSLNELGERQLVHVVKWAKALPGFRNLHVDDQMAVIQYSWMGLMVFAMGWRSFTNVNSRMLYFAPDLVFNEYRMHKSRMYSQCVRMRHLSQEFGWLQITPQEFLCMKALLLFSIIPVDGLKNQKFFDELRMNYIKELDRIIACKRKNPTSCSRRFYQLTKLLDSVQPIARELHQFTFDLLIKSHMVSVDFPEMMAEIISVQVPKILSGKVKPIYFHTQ
The conditions noted are these: clinical evidence; cited from earlier work.

In series [10] the test system is COVID-19. As to conditions: men, proxalutamide 200 mg for up to seven days; cited from earlier work.
For the next series, the system named is ACE2. As to conditions: cited from earlier work.
Series [11] concerns COVID-19. Put plainly: Clinical trial of proxalutamide in hospitalized COVID-19 patients in Brazil (NCT04728802). It is filed as in vivo, human. The conditions noted are these: initiated in patients that don't require supplemental O2.
Series [12] relates to COVID-19. The conditions noted are these: single case; case report later retracted; cited from earlier work.
Series [13] concerns COVID-19. The conditions noted are these: cited from earlier work. This is another data set of the same source.
The subject of series [14] is COVID-19. The conditions noted are these: patients with severe lung involvement; cited from earlier work.

Like-named read-outs stand apart in the source and are kept apart here.

Turning to `C[C@]12CCC(=O)C=C1C=C[C@@H]1[C@@H]2CC[C@@]2(C)[C@H]1CC[C@@]21CCC(=O)O1` [Canrenone], the fatalities entry in the series with COVID-19 [1] (intensive care observational series of cases with hypertension or hypokalemia) was “associated with reduced fatalities”.

In the case of `CC(C)(C)NC(=O)[C@H]1CC[C@H]2[C@@H]3CC[C@H]4NC(=O)C=C[C@]4(C)[C@H]3CC[C@]12C` [Finasteride], in series [2], the half-life (as a rule, how long it takes for the measured level to halve) was “six”. In addition, in the series on COVID-19 [3], the “peripheral capillary oxygen saturation” value is “clinically and statistically significant improvement”.

As to `C[C@]12CCC(=O)C=C1C=C[C@@H]1[C@@H]2CC[C@@]2(C)[C@H]1CC[C@@]2(O)CCC(=O)O` [Potassium canrenoate], in the series with COVID-19 [1] (severe COVID patients), the all-cause mortality result is “proven to reduce all-cause mortality”.

On to `C[C@]12C=CC(=O)N[C@@H]1CC[C@@H]1[C@@H]2CC[C@]2(C)[C@@H](C(=O)Nc3cc(C(F)(F)F)ccc3C(F)(F)F)CC[C@@H]12` [dutasteride], for which the “expression of TMPRSS2” value in the series with TMPRSS2 [4] is given as “decrease the expression”. The “symptomatic COVID-19 disease” value in the series on COVID-19 [5] is “less symptomatic COVID-19 disease”. Also, the half-life result in series [2] is “five”. Besides, in [6], the “expression of ACE2” value is on record as “decrease the expression”.

As to `CNC(=O)c1ccc(N2C(=S)N(c3ccc(C#N)c(C(F)(F)F)c3)C(=O)C2(C)C)cc1F` [enzalutamide], in the series with TMPRSS2 [7], the TMPRSS2 regulation result was “significantly downregulated TMPRSS2”. In the series on COVID-19 [8], the “effect on hospitalized COVID-19 patients” value was “positive effects”. In addition, the half-life in series [2] was 140 h. Besides, the “mortality, subgroup analysis” value in the series on COVID-19 [9] (human, in vivo) is listed as “significantly reduce mortality”.

As for `COCCCC/C(=N\OCCN)c1ccc(C(F)(F)F)cc1` [fluvoxamine], the anti-sepsis activity entry in the series on sepsis is recorded as “anti-sepsis activity”.

For the compound `CC1(C)C(=O)N(c2ccc(C#N)c(C(F)(F)F)c2F)C(=S)N1c1ccc(CCCc2ncco2)nc1` [proxalutamide], the “androgen receptor expression and activity” value at androgen receptor is “lowers androgen receptor expression and activity”. Also, in the series with COVID-19 [10], the 30-day hospitalization rate entry is reported as “about 2%” and the “reduction of the risk of hospitalization compared to usual care” value is on record as “more than 90%”. Moreover, the “expression of ACE2” value in the series with ACE2 is on record as “lowers the expression of ACE2”. Besides, the survival entry with COVID-19 [11] is on record as “no difference in survival”. In addition, the “symptom resolution and laboratory improvement” value in the series on COVID-19 [12] was “striking symptom resolution and laboratory improvement within twenty-four hours”. Besides, the “mortality in COVID-19 patients” value in the series on COVID-19 [13] (data from Brazil, both arms using corticosteroids) is listed as “dramatic impact of proxalutamide in reducing mortality”. The “lung opacities compared to placebo” value in the series with COVID-19 [13] (hospitalized COVID-19 patients) is “improves lung opacities”. Moreover, in the series with COVID-19 [9] (meta-analysis of RCTs), the “mortality, subgroup analysis” value is reported as “significantly reduce mortality”. Moreover, the “benefit vs standard-of-care which includes steroids” value in the series with COVID-19 [14] is “showed benefit”.

Consider `CC(=O)S[C@@H]1CC2=CC(=O)CC[C@]2(C)[C@H]2CC[C@@]3(C)[C@@H](CC[C@@]34CCC(=O)O4)[C@H]12` [spironolactone], for which the “expression of TMPRSS2” value in the series with TMPRSS2 [4] is listed as “decrease the expression”. Also, in series [6], the “expression of ACE2” value is “decrease the expression”.
